pKi: −log10 of the molar value.

Test [1] deals with Cannabinoid receptor 2 (Mus musculus, UniProt P47936).
Test [2] deals with T1, Cannabinoid receptor 2 (Rattus norvegicus, UniProt Q9QZN9).
T1 sequence (Q9QZN9 whole entry): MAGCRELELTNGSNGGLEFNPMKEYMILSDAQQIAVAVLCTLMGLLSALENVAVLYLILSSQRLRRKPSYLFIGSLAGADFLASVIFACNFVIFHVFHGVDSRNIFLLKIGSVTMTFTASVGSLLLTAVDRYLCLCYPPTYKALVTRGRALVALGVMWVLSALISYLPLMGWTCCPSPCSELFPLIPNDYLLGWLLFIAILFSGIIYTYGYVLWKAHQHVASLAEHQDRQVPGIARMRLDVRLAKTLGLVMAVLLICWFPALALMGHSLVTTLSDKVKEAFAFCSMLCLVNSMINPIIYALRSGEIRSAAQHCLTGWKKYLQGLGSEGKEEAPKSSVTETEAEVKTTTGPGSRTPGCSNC

Test [3] has as its target Cannabinoid receptor 2 (Homo sapiens, UniProt P34972).

Cannabinoid receptor 2 (Mus musculus, UniProt P47936), sequence (P47936 whole entry): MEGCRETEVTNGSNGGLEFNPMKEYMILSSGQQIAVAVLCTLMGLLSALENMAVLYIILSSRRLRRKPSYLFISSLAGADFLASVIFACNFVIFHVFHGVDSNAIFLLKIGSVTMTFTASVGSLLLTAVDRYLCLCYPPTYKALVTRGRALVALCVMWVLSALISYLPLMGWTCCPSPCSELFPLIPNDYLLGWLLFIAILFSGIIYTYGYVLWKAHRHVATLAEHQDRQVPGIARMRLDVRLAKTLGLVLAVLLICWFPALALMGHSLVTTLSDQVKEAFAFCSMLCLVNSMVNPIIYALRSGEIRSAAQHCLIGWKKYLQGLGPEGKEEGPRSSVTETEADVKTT
Cannabinoid receptor 2 (Homo sapiens, UniProt P34972), sequence (P34972 whole entry): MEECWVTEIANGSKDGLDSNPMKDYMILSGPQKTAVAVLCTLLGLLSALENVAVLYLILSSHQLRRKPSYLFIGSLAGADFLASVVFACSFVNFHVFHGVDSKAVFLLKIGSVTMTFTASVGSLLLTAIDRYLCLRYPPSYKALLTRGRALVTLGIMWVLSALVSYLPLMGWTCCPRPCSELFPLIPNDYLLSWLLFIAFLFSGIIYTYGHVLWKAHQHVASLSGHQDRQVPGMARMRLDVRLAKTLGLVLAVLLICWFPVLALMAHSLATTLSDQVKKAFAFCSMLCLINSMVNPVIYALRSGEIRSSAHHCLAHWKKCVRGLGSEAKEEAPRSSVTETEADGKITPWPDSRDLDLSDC

As for `CCCCC/C=C\C/C=C\C/C=C\C/C=C\CCCC(=O)NCCO` [Arachidonoyl ethanolamide], the negative logarithm of the Ki (pKi) (usually the Ki on a negative log10 scale, so that one unit is a factor of ten) at Cannabinoid receptor 2 [1] is 5.83.

`CCCCCCC(C)(C)c1ccc2c(c1)OC(C)(C)[C@@H]1CC=C(CO)C[C@@H]21` [JWH-051]: the pKi on Cannabinoid receptor 2 [2] is 8.50; at Cannabinoid receptor 2 [1], 9.14; on Cannabinoid receptor 2 [3], 9.48.

For the compound `CCCCCCC(C)(C)c1ccc([C@H]2C[C@@H](O)CC[C@@H]2CCCO)c(O)c1` [CP-56667 [(+)-AC],XV], the values for the negative logarithm of the Ki (pKi) on Cannabinoid receptor 2 [2] and at Cannabinoid receptor 2 [1] were 9.19 and 9.14, respectively.

Consider `CCCn1c(C)c(C(=O)c2cccc3ccccc23)c2ccccc21`, for which the pKi at Cannabinoid receptor 2 [2] is 6.57; at Cannabinoid receptor 2 [1], 6.37.

In the case of `CCCCCc1cc(O)c2c(c1)OC(C)(C)[C@@H]1CCC(C)=CC21` (stereo not given in full) [Tetrahydrocannabinol], the pKi on Cannabinoid receptor 2 [1] is 7.56.

On Cannabinoid receptor 2 [1], `Cc1c(C(=O)c2cccc3ccccc23)c2cccc3c2n1[C@H](CN1CCOCC1)CO3` [WIN55212-2] had a pKi of 8.02. This pKi is 0.46 log units higher than that of the compound before.

The values above are taken from BindingDB's records for PubMed 10688601 (Virginia Commonwealth University, 2000).
